According to patent publication US4307094A, “Triazolopyridazine derivatives” (Hoffmann-La Roche Inc., priority 1979, dated 1981):

Biological target: T1, angiotensin converting enzyme (Oryctolagus cuniculus, UniProt P12822)
T1 sequence (P12822 34-1310): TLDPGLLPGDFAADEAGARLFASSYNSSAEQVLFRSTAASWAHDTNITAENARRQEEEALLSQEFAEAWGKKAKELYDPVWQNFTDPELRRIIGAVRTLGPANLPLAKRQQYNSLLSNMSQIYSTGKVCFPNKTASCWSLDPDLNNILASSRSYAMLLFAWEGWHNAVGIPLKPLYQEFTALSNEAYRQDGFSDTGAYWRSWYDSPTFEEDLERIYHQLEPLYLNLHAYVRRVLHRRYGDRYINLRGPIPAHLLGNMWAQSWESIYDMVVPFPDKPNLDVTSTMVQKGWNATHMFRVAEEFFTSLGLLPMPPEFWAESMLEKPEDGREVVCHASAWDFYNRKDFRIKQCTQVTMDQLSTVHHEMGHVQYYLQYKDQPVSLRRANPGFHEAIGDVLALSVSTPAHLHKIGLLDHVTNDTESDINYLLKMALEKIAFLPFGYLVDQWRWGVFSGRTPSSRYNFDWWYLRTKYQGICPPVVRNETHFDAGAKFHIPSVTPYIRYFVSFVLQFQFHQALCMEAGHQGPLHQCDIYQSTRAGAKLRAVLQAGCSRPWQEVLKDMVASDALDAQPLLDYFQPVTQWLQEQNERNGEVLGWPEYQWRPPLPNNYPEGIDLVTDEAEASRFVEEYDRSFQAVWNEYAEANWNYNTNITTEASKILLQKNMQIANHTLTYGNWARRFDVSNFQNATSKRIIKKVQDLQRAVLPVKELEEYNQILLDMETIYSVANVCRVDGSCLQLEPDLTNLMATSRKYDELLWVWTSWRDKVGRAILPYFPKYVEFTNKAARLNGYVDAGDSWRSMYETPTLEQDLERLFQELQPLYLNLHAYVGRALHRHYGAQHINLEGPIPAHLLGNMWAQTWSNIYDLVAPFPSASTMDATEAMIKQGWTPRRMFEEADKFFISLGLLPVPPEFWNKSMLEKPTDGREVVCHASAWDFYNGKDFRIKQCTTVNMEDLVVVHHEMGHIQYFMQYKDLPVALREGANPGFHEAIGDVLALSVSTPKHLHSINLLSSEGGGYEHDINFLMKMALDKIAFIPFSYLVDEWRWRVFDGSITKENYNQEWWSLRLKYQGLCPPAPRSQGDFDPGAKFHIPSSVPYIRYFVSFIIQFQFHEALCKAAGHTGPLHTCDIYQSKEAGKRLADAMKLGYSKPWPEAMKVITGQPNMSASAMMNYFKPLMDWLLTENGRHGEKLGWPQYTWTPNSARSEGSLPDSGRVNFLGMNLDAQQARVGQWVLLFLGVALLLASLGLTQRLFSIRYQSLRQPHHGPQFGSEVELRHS
Test: inhibition of angiotensin converting enzyme in vitro (cleavage of hippuryl-histidyl-leucine)
Format: biochemical
Details: substrate hippuryl-histidyl-leucine 2 mM, potassium phosphate buffer pH 8.3 (100 mM), NaCl 300 mM, 25 minutes, 37° C.
Protocol: The activity of the present triazolopyridazine derivatives in inhibiting angiotensin converting enzyme in vitro can be determined by the following test.
The method used is based on the method of Cushman and Cheung (Biochem. Pharmacol., 20, 1637-1648) incorporating the modifications introduced by Hayakari et al. (Anal. Biochem., 84, 361-369). The substrate (hippuryl-histidyl-leucine, 2 mM) is incubated with angiotensin converting enzyme in the presence or absence of various concentrations of test substance in potassium phosphate buffer (pH 8.3; 100 mM) containing sodium chloride (300 mM) for 25 minutes at 37° C. (total […] 500 μl). The reaction is terminated by the addition of 3 ml of potassium phosphate buffer (pH 8.3; 200 mM) at 0° C. 2,4,6-trichloro-s-triazine (3%) in 1.5 ml of dioxan is added, and the mixture is agitated until the yellow chromophore has developed fully. The samples are then centrifuged to remove any precipitate which has formed. The yellow chromophore formed by the reaction of the 2,4,6-trichloro-s-triazine with free hippuric acid is measured spectrophotometrically at 382 nm. IC50 values are defined as the concentration of test substance which reduces by 50% the cleavage of hippuryl-histidyl-leucine by angiotensin converting enzyme under the aforementioned conditions.

Row | Compound | IC50 [µM]
1 | O=C(O)CCn1c(=O)n2n(c1=O)C(C(=O)O)C=CC2 (stereo not shown) [Compound A, 5-carboxy-2,3,5,8-tetrahydro-1,3-dioxo-1H-1,2,4-triazolo[1,2-a]pyridazine-2-propionic acid] | 18
2 | O=C(O)C1C=CCn2c(=O)n(CCS)c(=O)n21 (stereo not shown) [Compound D, 2,3,5,8-tetrahydro-2-(2-mercaptoethyl)-1,3-dioxo-1H-1,2,4-triazolo[1,2-a]pyridazine-5-carboxylic acid] | 0.48
3 | O=C(CCn1c(=O)n2n(c1=O)C(C(=O)O)C=CC2)NO (stereo not shown) [Compound C, 2-[2-(N-hydroxycarbamoyl)ethyl]-2,3,5,8-tetrahydro-1,3-dioxo-1H-1,2,4-triazolo[1,2-a]pyridazine-5-carboxylic acid] | 3.3
4 | NC(=O)CCn1c(=O)n2n(c1=O)C(C(=O)O)C=CC2 (stereo not shown) [Compound B, 2-(2-carbamoylethyl)-2,3,5,8-tetrahydro-1,3-dioxo-1H-1,2,4-triazolo[1,2-a]-pyridazine-5-carboxylic acid] | 65
